The values that follow come from patent publication US12060588B2, “Methods of editing DNA methylation” (Whitehead Institute for Biomedical Research, priority 2016, dated 2024).

The subject of this test is RHOXF2 promoter region. As to the kind of experiment: Comparison of dCas9- and TALE-based methylation editing, RHOXF2 promoter, bisulfite sequencing in HEK293T cells. The class given is cell-based. Here is the method: FIGS. 10A-10G depict comparison of TALE- and dCas9-based methylation editing. […] Transfection positive cell populations (cherry+) or (GFP+) were FACS sorted 48-hour post-transfection. Methylation levels of each individual CpG in the p16 promoter region were analyzed by bisulfite sequencing. Shown is the mean percentage±SD of two biological replicates with a total of 34 single colonies sequenced for dCas9-Dnmt3a and 31 single colonies sequenced for TALE-Dnmt3a. Red arrow indicates the position of p16 target gRNA, and purple arrow indicates the binding site for TALE-Dnmt3a. FIG. 10B depicts HEK293T cells were co-transfected with dCas9-Tet1 and one RHOXF2 target gRNA (with puro cassette) or TALE-Tet1 with a puro cassette expressing plasmid. Puromycin (2 ug/ml) was added to the culture medium to select for transfection positive cells. Cells were harvested after 2-day selection for analysis of methylation levels for individual CpGs in the RHOXF2 promoter region by bisulfite sequencing. Shown is the mean percentage±SD of two biological replicates with a total of 34 single colonies sequenced for dCas9-Tet1 and 38 single colonies sequenced for TALE-Tet1. Red arrow indicates the position of RHOXF2 target gRNA, and purple arrow indicates the binding site for […]. […]

As for “dCas9-Tet1: catalytically inactive Cas9 (dCas9) fused through NLS to the Tet1 catalytic domain, SEQ ID NO: 159; lentivirally expressed with gRNAs”, the “region (effective range) of methylation decrease in the RHOXF2 promoter” value (CpGs with change of methylation greater than 10%) is 150 bp. The “average decrease of methylation in the RHOXF2 promoter” value (one single gRNA or TALE at the same site, 2-day puromycin selection) was 28%.
